The results in this text go back to patent US11006626B2, “Compounds for protection of cells” (Sulfateq B.V., priority 2012, dated 2021).

Where two headings read alike, the source gives them in different places.

The subject of the experiment is Human Embryo Kidney (HEK) 293 cells. Description: Hypothermia/rewarming injury of HEK cells, trypan blue viability count. The class given is cell-based. As to conditions: for % cells that survived / viability at 0.1 µM / viability at 1 µM / viability at 10 µM / viability at 100 µM / viability at 0.01 µM / viability at 1000 µM: 24 h at 4° C., 24 h rewarming; for viability at 0.1 µM / viability at 1 µM / viability at 10 µM / viability at 100 µM / viability at 0.01 µM / viability at 1000 µM: Homo sapiens, read-out: % cells that survived; for % cells that survived, Mean: mean over the tested concentrations.

As for `Cc1c(C)c2c(c(C)c1O)CCC(C)(CN1CCC[C@H]1CO)O2` (stereo partly drawn) [SUL - 128, 2-(((S)-2-(hydroxymethyl)pyrrolidin-1-yl)methyl)-2,5,7,8-tetramethylchroman-6-ol], the “% cells that survived, Mean” value is recorded as 71%. Also, the “% cells that survived” value (10 nM) came to 28.21%. Besides, the “% cells that survived” value (1 mM) is recorded as 0.00%. For the setting “HEK293, 24 h, 100 nM”, the viability at 0.1 µM is 100%. The viability at 1 µM (HEK293, 24 h, 1 μM) worked out at 100%. Besides, the viability at 10 µM (HEK293, 24 h, 10 μM) is 100%. Moreover, the viability at 100 µM (HEK293, 24 h, 100 μM) was found to be 99.4%.
For the compound `Cc1c(C)c2c(c(C)c1O)CCC(C)(C(N)=O)O2` (centres unmarked) [SUL - 89, 6-hydroxy-2,5,7,8-tetramethylchroman-2-carboxamide], the “% cells that survived, Mean” value was found to be 76%. The viability at 0.1 µM (HEK293, 24 h, 100 nM) stood at 34.9%. Besides, the viability at 1 µM (HEK293, 24 h, 1 μM) turned out to be 88.6%. The viability at 10 µM (HEK293, 24 h, 10 μM) was 91.6%. Also, the viability at 100 µM (HEK293, 24 h, 100 μM) was 87.6%.
For `Cc1c2c(c(C(C)C)c(O)c1C(C)C)CCC(C)(C(=O)N1CCNCC1)O2` (centres unmarked) [SUL - 137, (6-hydroxy-5,7-diisopropyl-2,8-dimethylchroman-2-yl)(piperazin-1-yl)methanone], the “% cells that survived, Mean” value is recorded as 71%. Moreover, the viability at 0.01 µM (HEK293, 24 h, 10 nM) turned out to be 78.2%. Besides, the viability at 0.1 µM (HEK293, 24 h, 100 nM) stood at 86.1%. For the same compound, under “HEK293, 24 h, 1 μM”, the viability at 1 µM is 93.9%. The viability at 10 µM (HEK293, 24 h, 10 μM) turned out to be 90.9%. Moreover, the viability at 100 µM (HEK293, 24 h, 100 μM) turned out to be 78.7%. The viability at 1000 µM (HEK293, 24 h, 1 mM) is 0.53%.
Turning to `Cc1c(C)c2c(c(C)c1O)CCC(C)(C(=O)Nc1ccc(F)cc1)O2` (centres unmarked) [SUL - 106, N-(4-fluorophenyl)-6-hydroxy-2,5,7,8-tetramethylchroman-2-carboxamide], the “% cells that survived, Mean” value turned out to be 57%. Moreover, the viability at 0.01 µM (HEK293, 24 h, 10 nM) was 77.8%. Also, the viability at 0.1 µM (HEK293, 24 h, 100 nM) is 76.9%. Also, the viability at 1 µM (HEK293, 24 h, 1 μM) came out at 63.2%. Further, the viability at 10 µM (HEK293, 24 h, 10 μM) stood at 68.8%. The viability at 100 µM (HEK293, 24 h, 100 μM) stood at 55.6%. In addition, under “HEK293, 24 h, 1 mM”, the viability at 1000 µM was 0%.
As to `Cc1c(C)c2c(c(C)c1O)CCC(C)(C(=O)N1CCC[C@H]1CO)O2` (stereo partly drawn) [SUL - 112, (6-hydroxy-2,5,7,8-tetramethylchroman-2-yl)((S)-2-(hydroxymethyl)pyrrolidin-1-yl)methanone], the “% cells that survived, Mean” value is listed as 79%. The viability at 0.01 µM (HEK293, 24 h, 10 nM) was determined as 96.3%. The viability at 0.1 µM (HEK293, 24 h, 100 nM) was determined as 96.5%. The viability at 1 µM (HEK293, 24 h, 1 μM) came out at 95.4%. The viability at 10 µM (HEK293, 24 h, 10 μM) was determined as 93%. Besides, the viability at 100 µM (HEK293, 24 h, 100 μM) is 93.1%. In addition, the viability at 1000 µM (HEK293, 24 h, 1 mM) is 0%.
In the case of `Cc1c(C)c2c(c(C)c1O)CCC(C)(C(=O)NCc1ccc(F)cc1)O2` (centres unmarked) [SUL - 97, N-(4-fluorobenzyl)-6-hydroxy-2,5,7,8-tetramethylchroman-2-carboxamide], the “% cells that survived, Mean” value amounted to 58%. Besides, the viability at 0.1 µM (HEK293, 24 h, 100 nM) amounted to 0%. In addition, the viability at 1 µM (HEK293, 24 h, 1 μM) came out at 95.1%. Also, under “HEK293, 24 h, 10 μM”, the viability at 10 µM was 96.4%. Besides, where the note is “HEK293, 24 h, 100 μM”, the viability at 100 µM stood at 91.6%. The viability at 1000 µM (HEK293, 24 h, 1 mM) is 5.17%.
`Cc1c2c(c(C(C)C)c(O)c1C(C)C)CCC(C)(C(=O)NO)O2` (centres unmarked) [SUL - 131, N,6-dihydroxy-5,7-diisopropyl-2,8-dimethylchroman-2-carboxamide]: the “% cells that survived, Mean” value was 32%. The viability at 0.01 µM (HEK293, 24 h, 10 nM) was 2.99%. Also, the viability at 0.1 µM (HEK293, 24 h, 100 nM) was 1.59%. For the same compound, the viability at 1 µM (HEK293, 24 h, 1 μM) stood at 22.5%. For the setting “HEK293, 24 h, 10 μM”, the viability at 10 µM stood at 91.1%. The viability at 100 µM (HEK293, 24 h, 100 μM) was 75.4%. For the same compound, the viability at 1000 µM (HEK293, 24 h, 1 mM) stood at 0%.
As to `Cc1c(C)c2c(c(C)c1O)CCC(C)(C(=O)N[C@@H](C(N)=O)c1ccccc1)O2` (stereo partly drawn) [SUL - 111, N-((R)-2-amino-2-oxo-1-phenylethyl)-6-hydroxy-2,5,7,8-tetramethylchroman-2-carboxamide], the “% cells that survived, Mean” value came to 90%. Further, the viability at 0.01 µM (HEK293, 24 h, 10 nM) turned out to be 90.9%. The viability at 0.1 µM (HEK293, 24 h, 100 nM) stood at 81.6%. The viability at 1 µM (HEK293, 24 h, 1 μM) is 97.3%. For the same compound, the viability at 10 µM (HEK293, 24 h, 10 μM) worked out at 93.7%. Also, for the setting “HEK293, 24 h, 100 μM”, the viability at 100 µM was found to be 94.3%. In addition, the viability at 1000 µM (HEK293, 24 h, 1 mM) came out at 79.2%.
In the case of `CCCCNC(=O)C1(C)CCc2c(C)c(O)c(C)c(C)c2O1` (centres unmarked) [SUL - 91, N-butyl-6-hydroxy-2,5,7,8-tetramethylchroman-2-carboxamide], the “% cells that survived, Mean” value stood at 52%. Besides, the viability at 0.1 µM (HEK293, 24 h, 100 nM) worked out at 2.28%. Besides, under “HEK293, 24 h, 1 μM”, the viability at 1 µM is 82.4%. Further, the viability at 10 µM (HEK293, 24 h, 10 μM) turned out to be 89.5%. Moreover, the viability at 100 µM (HEK293, 24 h, 100 μM) was 87.5%. Besides, under “HEK293, 24 h, 1 mM”, the viability at 1000 µM amounted to 0%.
In the case of `Cc1c(C)c2c(c(C)c1O)CCC(C)(CN1CCC[C@H]1CO)O2` (stereo partly drawn) [SUL - 134, 2-(((S)-2-(hydroxymethyl)pyrrolidin-1-yl)methyl)-2,5,7,8-tetramethylchroman-6-ol], the “% cells that survived, Mean” value is listed as 79%. The “% cells that survived” value (10 nM) is reported as 87.43%. In addition, the “% cells that survived” value (100 nM) is recorded as 86.34%. Moreover, for the setting “1 μM”, the “% cells that survived” value is on record as 87.74%. Also, the “% cells that survived” value (10 μM) was determined as 86.58%. Further, the “% cells that survived” value (100 μM) was found to be 88.82%. Where the note is “1 mM”, the “% cells that survived” value is reported as 36.51%.
Consider `Cc1c(C)c2c(c(C)c1O)CCC(C)(C(=O)NCCBr)O2` (centres unmarked) [SUL - 114, N-(2-bromoethyl)-6-hydroxy-2,5,7,8-tetramethylchroman-2-carboxamide], for which the “% cells that survived, Mean” value amounted to 71%. Moreover, the viability at 0.01 µM (HEK293, 10 nM) was 81.1%. Where the note is “HEK293, 100 nM”, the viability at 0.1 µM stood at 87.2%. Further, the viability at 1 µM (HEK293, 1 μM) was 89.9%. Also, the viability at 10 µM (HEK293, 10 μM) was determined as 87.7%. Also, the viability at 100 µM (HEK293, 100 μM) is 77.9%. Also, the viability at 1000 µM (HEK293, 1 mM) is 0%.
For `CC(C)=CCC/C(C)=C/CNC(=O)C1(C)CCc2c(C)c(O)c(C)c(C)c2O1` (centres unmarked) [SUL - 93, (E)-N-(3,7-dimethylocta-2,6-dien-1-yl)-6-hydroxy-2,5,7,8-tetramethylchroman-2-carboxamide], the “% cells that survived, Mean” value was 61%. Where the note is “HEK293, 24 h, 100 nM”, the viability at 0.1 µM came out at 97%. Further, the viability at 1 µM (HEK293, 24 h, 1 μM) worked out at 96.1%. The viability at 10 µM (HEK293, 24 h, 10 μM) came out at 84%. For the same compound, the viability at 100 µM (HEK293, 24 h, 100 μM) came out at 21.7%. For the same compound, for the setting “HEK293, 24 h, 1 mM”, the viability at 1000 µM is 8%.
For `Cc1c(C)c2c(c(C)c1O)CCC(C)(C(=O)NC(C)C)O2` (centres unmarked) [SUL - 92, 6-hydroxy-N-isopropyl-2,5,7,8-tetramethylchroman-2-carboxamide], the “% cells that survived, Mean” value stood at 49%. For the setting “HEK293, 24 h, 100 nM”, the viability at 0.1 µM was 3.13%. Also, the viability at 1 µM (HEK293, 24 h, 1 μM) stood at 64.6%. The viability at 10 µM (HEK293, 24 h, 10 μM) was found to be 87.1%. Besides, the viability at 100 µM (HEK293, 24 h, 100 μM) worked out at 86.5%. Moreover, the viability at 1000 µM (HEK293, 24 h, 1 mM) is 1.55%.
For `Cc1c(C)c2c(c(C)c1O)CCC(C)(C)O2` [SUL - 83, 2,2,5,7,8-pentamethylchroman-6-ol], the “% cells that survived, Mean” value is reported as 41%. Besides, for the setting “HEK293, 24 h, 100 nM”, the viability at 0.1 µM came to 0%. Further, under “HEK293, 24 h, 1 μM”, the viability at 1 µM turned out to be 79.4%. Besides, the viability at 10 µM (HEK293, 24 h, 10 μM) was determined as 70.1%. Also, for the setting “HEK293, 24 h, 100 μM”, the viability at 100 µM was found to be 55.7%. The viability at 1000 µM (HEK293, 24 h, 1 mM) came to 1.11%.
`Cc1c(C)c2c(c(C)c1O)CC[C@@](C)(C(=O)O)O2` [SUL - 84, (S)-6-hydroxy-2,5,7,8-tetramethylchroman-2-carboxylic acid]: the “% cells that survived, Mean” value is reported as 57%. Besides, the viability at 0.1 µM (HEK293, 24 h, 100 nM) was determined as 6.22%. The viability at 1 µM (HEK293, 24 h, 1 μM) was found to be 19.8%. Besides, under “HEK293, 24 h, 10 μM”, the viability at 10 µM came out at 70.1%. Besides, the viability at 100 µM (HEK293, 24 h, 100 μM) is 95.7%. In addition, the viability at 1000 µM (HEK293, 24 h, 1 mM) is 94.5%.
`CCCCN1CCN(C(=O)C2(C)CCc3c(C)c(O)c(C)c(C)c3O2)CC1` (centres unmarked) [SUL - 108, (4-butylpiperazin-1-yl)(6-hydroxy-2,5,7,8-tetramethylchroman-2-yl)methanone]: the “% cells that survived, Mean” value turned out to be 55%. Further, the viability at 0.01 µM (HEK293, 24 h, 10 nM) was determined as 0%. For the same compound, the viability at 0.1 µM (HEK293, 24 h, 100 nM) is 40.9%. For the same compound, the viability at 1 µM (HEK293, 24 h, 1 μM) amounted to 94.2%. In addition, under “HEK293, 24 h, 10 μM”, the viability at 10 µM amounted to 96.8%. In addition, the viability at 100 µM (HEK293, 24 h, 100 μM) came out at 96.6%. For the setting “HEK293, 24 h, 1 mM”, the viability at 1000 µM is 0%.
